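Cells were grown in 96-well plates and exposed to each compound for 48 hours at five concentrations; endpoints were interpolated linearly between bracketing concentrations, or set to the highest concentration if not reached. GI50 = concentration required for 50% inhibition of growth.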 Activity calls are given as the source filed them. Cut-off read from the data, not from the text of the source: active = GI50 up to about 1.1 µM and inactive = higher. Where a SMILES comes first, the peptide text is derived from it. The star is where a group is joined. X33 = O=C(c1ccc(-c2ccc(Cl)cc2Cl)o1)*
Assays:
Test in all cases: NCI tumour cell line growth inhibition, 48 h
[1] = system: HCC 2998
[2] = system: HCT-15
[3] = system: EKVX
[4] = system: IGROV-1
[5] = system: UO-31
[6] = system: SR
[7] = system: UACC-62
[8] = system: RXF 393
[9] = system: SF-295
[10] = system: HL-60
[11] = system: KM12
[12] = system: SNB-19
[13] = system: SK-MEL-28
[14] = system: SNB-75
[15] = system: HOP-92
[16] = system: MDA-MB-231
[17] = system: SW-620
[18] = system: NCI-H460
[19] = system: LOX IMVI
[20] = system: OVCAR-4

## CCC(C)C(NC(=O)CNC(=O)C(Cc1ccccc1)NC(=O)C1CCCN1C(=O)c1ccc(-c2ccc(Cl)cc2Cl)o1)C(=O)OC (stereo not given) (X33-PFGI-OMe; configuration not given here)
[1]
  GI50: 21.3 µM (inactive)
[2]
  GI50: 43.1 µM
[3]
  GI50: 24.1 µM (inactive)
[4]
  GI50: 19.6 µM (inactive)
[5]
  GI50: 36.8 µM (inactive)
[6]
  GI50: 12.5 µM (inactive)
[7]
  GI50: 25.2 µM (inactive)
[8]
  GI50: 19.4 µM (inactive)
[9]
  GI50: 22 µM (inactive)
[10]
  GI50: 3.47 µM (inactive)
[11]
  GI50: 37.5 µM (inactive)
[12]
  GI50: 48.1 µM (inactive)
[13]
  GI50: 27.3 µM (inactive)
[14]
  GI50: 23.6 µM (inactive)
[15]
  GI50: 11.2 µM (inactive)
[16]
  GI50: 24.7 µM (inactive)
[17]
  GI50: 23 µM (inactive)
[18]
  GI50: 15.7 µM (inactive)
[19]
  GI50: 33.3 µM (inactive)
[20]
  GI50: 28.6 µM (inactive)

## O=C(NC1=C(Cl)C(=O)c2ccccc2C1=O)C(=O)c1c(O)c2ccccc2oc1=O
[1]
  GI50: 8.11 µM (inactive)
[2]
  GI50: 3.18 µM
[3]
  GI50: 9.42 µM (inactive)
[4]
  GI50: 3.27 µM (inactive)
[5]
  GI50: 7.66 µM (inactive)
[6]
  GI50: 3.04 µM (inactive)
[7]
  GI50: 2.3 µM (inactive)
[8]
  GI50: 5.62 µM (inactive)
[9]
  GI50: 2.46 µM (inactive)
[10]
  GI50: 3.21 µM (inactive)
[11]
  GI50: 4.55 µM (inactive)
[12]
  GI50: 4.6 µM (inactive)
[13]
  GI50: 2.39 µM (inactive)
[14]
  GI50: 5.14 µM (inactive)
[15]
  GI50: 12.4 µM (inactive)
[16]
  GI50: 3.48 µM (inactive)
[17]
  GI50: 5.22 µM (inactive)
[18]
  GI50: 2.54 µM (inactive)
[19]
  GI50: 2 µM (inactive)
[20]
  GI50: 7.4 µM (inactive)

## C/C(=N\Nc1nc2cc(C)ccc2s1)c1ccccn1
[1]
  GI50: 1.29 µM (inactive)
[2]
  GI50: 0.272 µM
[3]
  GI50: 0.143 µM (active)
[4]
  GI50: 0.199 µM (active)
[5]
  GI50: 0.117 µM (active)
[6]
  GI50: 0.232 µM (active)
[7]
  GI50: 0.596 µM (active)
[8]
  GI50: 3.63 µM (inactive)
[9]
  GI50: 1.15 µM (inactive)
[10]
  GI50: 0.158 µM (active)
[11]
  GI50: 0.794 µM (active)
[12]
  GI50: 1.38 µM (inactive)
[13]
  GI50: 1.61 µM (inactive)
[14]
  GI50: 2.23 µM (inactive)
[15]
  GI50: 0.282 µM (active)
[16]
  GI50: 0.233 µM (active)
[17]
  GI50: 0.209 µM (active)
[18]
  GI50: 0.69 µM (active)
[19]
  GI50: 0.481 µM (active)
[20]
  GI50: 0.324 µM (active)

## N#Cc1nc(-c2ccccc2C(=O)O)oc1N
[1]
  GI50: > 100 µM (inactive)
[2]
  GI50: > 100 µM
[3]
  GI50: > 100 µM (inactive)
[4]
  GI50: > 100 µM (inactive)
[5]
  GI50: > 100 µM (inactive)
[6]
  GI50: > 100 µM (inactive)
[7]
  GI50: > 100 µM (inactive)
[8]
  GI50: > 100 µM (inactive)
[9]
  GI50: > 100 µM (inactive)
[10]
  GI50: > 100 µM (inactive)
[11]
  GI50: > 100 µM (inactive)
[12]
  GI50: > 100 µM (inactive)
[13]
  GI50: > 100 µM (inactive)
[14]
  GI50: > 100 µM (inactive)
[15]
  GI50: > 100 µM (inactive)
[16]
  GI50: > 100 µM (inactive)
[17]
  GI50: > 100 µM (inactive)
[18]
  GI50: > 100 µM (inactive)
[19]
  GI50: > 100 µM (inactive)
[20]
  GI50: > 100 µM (inactive)

## N#CCc1nc(-c2cc3ccccc3oc2=O)cs1
[1]
  GI50: > 100 µM (inactive)
[2]
  GI50: 35.8 µM
[3]
  GI50: 41.4 µM (inactive)
[4]
  GI50: 40.6 µM (inactive)
[5]
  GI50: 40.4 µM (inactive)
[6]
  GI50: 43.6 µM (inactive)
[7]
  GI50: 18.7 µM (inactive)
[8]
  GI50: > 100 µM (inactive)
[9]
  GI50: 72.6 µM (inactive)
[10]
  GI50: 17.5 µM (inactive)
[11]
  GI50: 26.7 µM (inactive)
[12]
  GI50: > 100 µM (inactive)
[13]
  GI50: 37.3 µM (inactive)
[14]
  GI50: 19.1 µM (inactive)
[15]
  GI50: 41.7 µM (inactive)
[16]
  GI50: 79.3 µM (inactive)
[17]
  GI50: > 100 µM (inactive)
[18]
  GI50: 75.2 µM (inactive)
[19]
  GI50: 56.9 µM (inactive)
[20]
  GI50: 44.1 µM (inactive)

## O=S1(=O)c2ccccc2N2C(c3ccccc3)=NOC2(c2ccccc2)CC1c1ccc(Br)cc1 (stereo not given)
[1]
  GI50: > 100 µM (inactive)
[2]
  GI50: > 100 µM
[3]
  GI50: > 100 µM (inactive)
[4]
  GI50: > 100 µM (inactive)
[5]
  GI50: > 100 µM (inactive)
[6]
  GI50: > 100 µM (inactive)
[7]
  GI50: > 100 µM (inactive)
[8]
  GI50: > 100 µM (inactive)
[9]
  GI50: > 100 µM (inactive)
[10]
  GI50: > 100 µM (inactive)
[11]
  GI50: > 100 µM (inactive)
[12]
  GI50: > 100 µM (inactive)
[13]
  GI50: > 100 µM (inactive)
[14]
  GI50: > 100 µM (inactive)
[15]
  GI50: 32.4 µM (inactive)
[16]
  GI50: > 100 µM (inactive)
[17]
  GI50: > 100 µM (inactive)
[18]
  GI50: > 100 µM (inactive)
[19]
  GI50: > 100 µM (inactive)
[20]
  GI50: > 100 µM (inactive)

## O=[N+]([O-])/C=C/c1cc2ccc3ccccc3c2[nH]1
[1]
  GI50: 1.92 µM (inactive)
[2]
  GI50: 1.72 µM
[3]
  GI50: 2.76 µM (inactive)
[4]
  GI50: 0.527 µM (active)
[5]
  GI50: 1.56 µM (inactive)
[6]
  GI50: 0.555 µM (active)
[7]
  GI50: 1.68 µM (inactive)
[8]
  GI50: 1.43 µM (inactive)
[9]
  GI50: 2.4 µM (inactive)
[10]
  GI50: 2.12 µM (inactive)
[11]
  GI50: 1.83 µM (inactive)
[12]
  GI50: 2.66 µM (inactive)
[13]
  GI50: 2.01 µM (inactive)
[14]
  GI50: 1.79 µM (inactive)
[15]
  GI50: 1.76 µM (inactive)
[16]
  GI50: 1.43 µM (inactive)
[17]
  GI50: 1.49 µM (inactive)
[18]
  GI50: 2.11 µM (inactive)
[19]
  GI50: 1.23 µM (inactive)
[20]
  GI50: 1.98 µM (inactive)

## C=CCN1C(=O)/C(=C/c2ccc(C)cc2)N=C1SC/C=C/C
[1]
  GI50: 41.7 µM (inactive)
[2]
  GI50: 33.4 µM
[3]
  GI50: 27 µM (inactive)
[4]
  GI50: 51.6 µM (inactive)
[5]
  GI50: 47.3 µM (inactive)
[6]
  GI50: 17.2 µM (inactive)
[7]
  GI50: 39.5 µM (inactive)
[8]
  GI50: 11.5 µM (inactive)
[9]
  GI50: 36.8 µM (inactive)
[10]
  GI50: 15.8 µM (inactive)
[11]
  GI50: 27.8 µM (inactive)
[12]
  GI50: 15.5 µM (inactive)
[13]
  GI50: 50.6 µM (inactive)
[14]
  GI50: 17.8 µM (inactive)
[15]
  GI50: 22.6 µM (inactive)
[16]
  GI50: 51.5 µM (inactive)
[17]
  GI50: 39.4 µM (inactive)
[18]
  GI50: 40.3 µM (inactive)
[19]
  GI50: 19.6 µM (inactive)
[20]
  GI50: 41.9 µM (inactive)

## CN(NC(=O)CCCl)C1=NCCN1
[1]
  GI50: > 100 µM (inactive)
[2]
  GI50: > 100 µM
[3]
  GI50: > 100 µM (inactive)
[4]
  GI50: > 100 µM (inactive)
[5]
  GI50: > 100 µM (inactive)
[6]
  GI50: > 100 µM (inactive)
[7]
  GI50: > 100 µM (inactive)
[8]
  GI50: > 100 µM (inactive)
[9]
  GI50: > 100 µM (inactive)
[10]
  GI50: > 100 µM (inactive)
[11]
  GI50: > 100 µM (inactive)
[12]
  GI50: > 100 µM (inactive)
[13]
  GI50: > 100 µM (inactive)
[14]
  GI50: > 100 µM (inactive)
[15]
  GI50: > 100 µM (inactive)
[16]
  GI50: > 100 µM (inactive)
[17]
  GI50: > 100 µM (inactive)
[18]
  GI50: > 100 µM (inactive)
[19]
  GI50: > 100 µM (inactive)
[20]
  GI50: > 100 µM (inactive)

## O=C(Nc1cc2c(=O)oc3ccccc3c2oc1=O)c1cccnc1
[1]
  GI50: > 100 µM (inactive)
[2]
  GI50: > 100 µM
[3]
  GI50: > 100 µM (inactive)
[4]
  GI50: > 100 µM (inactive)
[5]
  GI50: > 100 µM (inactive)
[6]
  GI50: 78.5 µM (inactive)
[7]
  GI50: > 100 µM (inactive)
[8]
  GI50: > 100 µM (inactive)
[9]
  GI50: > 100 µM (inactive)
[10]
  GI50: 48 µM (inactive)
[11]
  GI50: > 100 µM (inactive)
[12]
  GI50: 73.5 µM (inactive)
[13]
  GI50: > 100 µM (inactive)
[14]
  GI50: 62.4 µM (inactive)
[15]
  GI50: > 100 µM (inactive)
[16]
  GI50: > 100 µM (inactive)
[17]
  GI50: > 100 µM (inactive)
[18]
  GI50: > 100 µM (inactive)
[19]
  GI50: > 100 µM (inactive)
[20]
  GI50: > 100 µM (inactive)

## OC1C2CCCCN2C[C@@H](O)[C@H]1O (stereo not given in full)
[1]
  GI50: > 100 µM (inactive)
[2]
  GI50: > 100 µM
[3]
  GI50: > 100 µM (inactive)
[4]
  GI50: > 100 µM (inactive)
[5]
  GI50: > 100 µM (inactive)
[6]
  GI50: > 100 µM (inactive)
[7]
  GI50: > 100 µM (inactive)
[8]
  GI50: > 100 µM (inactive)
[9]
  GI50: > 100 µM (inactive)
[10]
  GI50: > 100 µM (inactive)
[11]
  GI50: > 100 µM (inactive)
[12]
  GI50: > 100 µM (inactive)
[13]
  GI50: > 100 µM (inactive)
[14]
  GI50: > 100 µM (inactive)
[15]
  GI50: > 100 µM (inactive)
[16]
  GI50: > 100 µM (inactive)
[17]
  GI50: > 100 µM (inactive)
[18]
  GI50: > 100 µM (inactive)
[19]
  GI50: > 100 µM (inactive)
[20]
  GI50: > 100 µM (inactive)

Source: ChEMBL document CHEMBL1201862, “PubChem BioAssay data set” (2004)
